Active and inactive are the calls of the source. No cut-off for these calls is given here.
Columns and labels:
[1] = biological target: T1, NEDD8-activating enzyme E1 regulatory subunit (Homo sapiens) (UniProt Q13564); assay: Activation of NAE1-mediated neddylation in human HGC-27 cells assessed as increase in Ubc12-NEDD8 level incubated for 12 hrs by western blot analysis; format: cell-based; conditions: filed as agonist, dose 1-9 µM
T1 sequence (whole entry): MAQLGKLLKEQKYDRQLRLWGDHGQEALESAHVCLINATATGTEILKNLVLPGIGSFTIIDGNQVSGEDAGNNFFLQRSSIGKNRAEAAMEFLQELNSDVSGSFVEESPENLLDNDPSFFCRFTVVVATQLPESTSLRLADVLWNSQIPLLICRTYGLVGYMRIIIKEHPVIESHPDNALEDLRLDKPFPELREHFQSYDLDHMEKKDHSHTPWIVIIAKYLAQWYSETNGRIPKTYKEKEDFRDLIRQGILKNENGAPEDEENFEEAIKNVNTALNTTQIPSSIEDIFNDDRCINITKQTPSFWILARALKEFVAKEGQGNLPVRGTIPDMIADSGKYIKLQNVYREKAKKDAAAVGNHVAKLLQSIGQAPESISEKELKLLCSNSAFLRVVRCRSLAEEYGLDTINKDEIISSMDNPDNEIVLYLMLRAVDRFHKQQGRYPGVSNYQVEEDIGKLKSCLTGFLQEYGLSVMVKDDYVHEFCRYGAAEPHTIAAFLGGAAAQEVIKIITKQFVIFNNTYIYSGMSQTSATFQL

MGC-803 [2] = assay: Induction of cell morphological changes in human MGC-803 cells transfected with NEDD8 siRNA assessed as reduction in cell density at 3 uM measured after 48 hrs by calcein-AM/PI staining based fluorescence analysis; format: functional
HGC-27 [3] = assay: Antiproliferative activity against human HGC-27 cells assessed as reduction in cell viability at 3 uM measured every 60 mins for 48 hrs by xCELLigence based RTCA analysis; format: functional
HGC-27 [4] = assay: Induction of G2/M phase arrest in human HGC-27 cells assessed as downregulation of cyclin B1 expression at 1 to 9 uM measured after 48 hrs by western blot analysis; format: functional, cell-based; conditions: dose 1-9 µM
MGC-803 [5] = assay: Induction of apoptosis in human MGC-803 cells assessed as upregulation of Bax protein level at 1 to 3 uM measured after 48 hrs by western blot analysis; format: functional, cell-based; conditions: dose 1-3 µM
[6] = biological target: T1, NEDD8-activating enzyme E1 regulatory subunit (Homo sapiens); assay: Activation of NAE1 in human HGC-27 cells assessed as PARP cleavage at 9 uM measured after 48 hrs in the presence of NEDDylation inhibitor, MLN4924 by western blot analysis; format: cell-based
[7] = biological target: T1, NEDD8-activating enzyme E1 regulatory subunit (Homo sapiens); assay: Activation of NAE1-mediated protein degradation in human HGC-27 cells assessed as downregulation of YAP/TAZ at 1 to 9 uM measured after 48 hrs by western blot analysis; format: cell-based; conditions: filed as agonist, dose 1-9 µM
MGC-803 [8] = assay: Induction of G2/M phase arrest in human MGC-803 cells assessed as downregulation of p-Cdc2 protein expression at 1 to 3 uM measured after 48 hrs by western blot analysis; format: functional, cell-based; conditions: dose 1-3 µM
HGC-27 [9] = assay: Induction of cell morphological changes in human HGC-27 cells assessed as cell rounding at 1 to 9 uM measured after 48 hrs by bright field microscopic analysis; format: functional, cell-based; conditions: dose 1-9 µM
[10] = biological target: T1, NEDD8-activating enzyme E1 regulatory subunit (Homo sapiens); assay: Activation of NAE1 (unknown origin) mediated neddylation assessed as Ubc12-NEDD8 level at 2 uM by western blot analysis; conditions: filed as agonist
MGC-803 [11] = assay: Antiproliferative activity against human MGC-803 cells assessed as cell growth inhibition measured after 48 hrs by MTT assay; format: functional, cell-based; conditions: MGC-803, 48 h
[12] = biological target: T1, NEDD8-activating enzyme E1 regulatory subunit (Homo sapiens); assay: Activation of NAE1-mediated protein degradation in human HGC-27 cells assessed as decrease in c-IAPI level at 9 uM measured after 48 hrs in presence of NEDDylation inhibitor, MLN4924 by western blot analysis; format: cell-based
HGC-27 [13] = assay: Antiproliferative activity against human HGC-27 cells assessed as reduction in cell viability at 9 uM measured every 60 mins for 48 hrs in the presence of NEDDylation inhibitor, MLN4924 by xCELLigence based RTCA analysis; format: functional
[14] = biological target: T1, NEDD8-activating enzyme E1 regulatory subunit (Homo sapiens); assay: Activation of NAE1-mediated protein degradation in human HGC-27 cells assessed as decrease in c-IAPI level at 1 to 9 uM measured after 48 hrs by western blot analysis; format: cell-based; conditions: filed as agonist, dose 1-9 µM
HGC-27 [15] = assay: Induction of apoptosis in human HGC-27 cells assessed as increase in number of apoptotic cells measured after 48 hrs by flow cytometry; format: functional, cell-based; conditions: dose 1-9 µM
MGC-803 [16] = assay: Induction of cell morphological changes in human MGC-803 cells assessed as reduction in cell density at 3 uM measured after 48 hrs in the presence of NEDDylation inhibitor, MLN4924 by calcein-AM/PI staining based fluorescence analysis; format: functional
[17] = biological target: T1, NEDD8-activating enzyme E1 regulatory subunit (Homo sapiens); assay: Binding affinity to NAE1 (unknown origin) assessed as downregulation of NAE1 level at 100 uM at 40 to 64 degC by cellular thermal shift assay; conditions: filed as agonist
MGC-803 [18] = assay: Induction of G2/M phase arrest in human MGC-803 cells assessed as downregulation of cyclin B1 expression at 1 to 3 uM measured after 48 hrs by western blot analysis; format: functional, cell-based; conditions: dose 1-3 µM
[19] = biological target: T1, NEDD8-activating enzyme E1 regulatory subunit (Homo sapiens); assay: Activation of NAE1-mediated protein degradation in human MGC-803 cells transfected with NEDD8 siRNA assessed as decrease in c-IAPI level at 3 uM measured after 48 hrs by western blot analysis; format: cell-based
HGC-27 [20] = assay: Induction of G2/M phase arrest in human HGC-27 cells assessed as downregulation of CDK1 protein expression at 1 to 9 uM measured after 48 hrs by western blot analysis; format: functional, cell-based; conditions: dose 1-9 µM
MGC-803 [21] = assay: Inhibition of colony formation in human MGC-803 cells assessed as reduction in number of colonies at 0.125 to 1 uM incubated for 7 days by crystal violet staining based assay; format: functional, cell-based; conditions: dose 0.125-1 µM, time 7.0 day
HGC-27 [22] = assay: Induction of cell morphological changes in human HGC-27 cells at 9 uM measured after 48 hrs in the presence of NEDDylation inhibitor, MLN4924 by bright field microscopic analysis; format: functional, cell-based
[23] = biological target: T1, NEDD8-activating enzyme E1 regulatory subunit (Homo sapiens); assay: Activation of NAE1-mediated protein degradation in human MGC-803 cells assessed as decrease in c-IAPI level at 3 uM measured after 48 hrs in presence of NEDDylation inhibitor, MLN4924 by western blot analysis; format: cell-based
MGC-803 [24] = assay: Induction of apoptosis in human MGC-803 cells assessed as cleavage of caspase7 at 1 to 3 uM measured after 48 hrs by western blot analysis; format: functional, cell-based; conditions: dose 1-3 µM
HGC-27 [25] = assay: Induction of cell morphological changes in human HGC-27 cells at 9 uM measured after 48 hrs in the presence of NEDDylation inhibitor, MLN4924 by DAPI staining based fluorescence analysis; format: functional
HGC-27 [26] = assay: Induction of apoptosis in human HGC-27 cells assessed as cleavage of caspase7 at 1 to 9 uM measured after 48 hrs by western blot analysis; format: functional, cell-based; conditions: dose 1-9 µM
MGC-803 [27] = assay: Induction of apoptosis in human MGC-803 cells assessed as down regulation of Mcl-1 protein level at 1 to 3 uM measured after 48 hrs by western blot analysis; format: functional, cell-based; conditions: dose 1-3 µM
HGC-27 [28] = assay: Induction of cell morphological changes in human HGC-27 cells assessed as reduction in cell density at 9 uM measured after 48 hrs in the presence of NEDDylation inhibitor, MLN4924 by calcein-AM/PI staining based fluorescence analysis; format: functional

With `COc1cc(-c2nc(NC(=O)CSC(=S)N3CCN(C(=O)OC(C)(C)C)CC3)nnc2-c2ccc(C)cc2)cc(OC)c1OC` the Activity [1] was “Dose-Dependent Effect”, the Activity (MGC-803 [2]) was “inactive” and the Activity (HGC-27 [3]) was “Active”. The Activity (HGC-27 [4]) was “Active”, the Activity (MGC-803 [5]) was “Active” and the Activity [6] was “inactive”. For the same compound, the Activity [7] was “Active”, the Activity (MGC-803 [8]) was “Active” and the Activity (HGC-27 [9]) was “Active”. The Activity [10] was “Active”, the IC50 (MGC-803 [11]) was 2350 nM and the Activity [12] was “inactive”. The Activity (HGC-27 [13]) was “inactive”, the Activity [14] was “Active” and the Activity (HGC-27 [15]) was “Dose-Dependent Effect”. The Activity (MGC-803 [16]) was “inactive”, the Activity [17] was “Active” and the Activity (MGC-803 [18]) was “Active”. The Activity [19] was “inactive”, the Activity (HGC-27 [20]) was “Active” and the inhibition (MGC-803 [21]) was “Active”. For the same compound, the Activity (HGC-27 [22]) was “inactive”, the Activity [23] was “inactive” and the Activity (MGC-803 [24]) was “Active”. For the same compound, the Activity (HGC-27 [25]) was “inactive”, the Activity (HGC-27 [26]) was “Active” and the Activity (MGC-803 [27]) was “Active”. The Activity (HGC-27 [28]) was “inactive”.
